Experiment [1] has as its system bone marrow-derived macrophages (BMM). In words: Cytokine release (ELISA) from mouse bone marrow-derived macrophages pre-treated with RL5P. Type of experiment: cell-based. Here is the method: (§1) FIG. 3 is a graphical representation showing the effect of R5LP treatment of macrophages on the release of cytokines IL-1β and TNF. (A-B) Human monocyte-derived macrophages (HMDM) were pre-treated with ribulose-5-phosphate (RL5P) for 16 h at the indicated concentrations. Nigericin-triggered IL-1β release from LPS-primed cells (A), as well as LPS-induced TNF (B) in culture supernatants were assessed by ELISA. (C-D) BMM were pre-treated for 16 h with RL5P at the indicated concentrations. Nigericin-triggered IL-1β release from LPS-primed cells (C), as well as LPS-induced TNF (D) in culture supernatants were assessed by ELISA. Data were compiled from six independent experiments (or donors) and are presented as mean±S.E.M. Statistical significance was determined using two-way ANOVA followed by Sidak's multiple comparison test (ns—not significant; * p<0.05; ** p<0.01).
(§2) FIG. 4 is a graphical representation showing the effect of R5LP treatment of macrophages on the release of cytokine IL-6. HMDM and BMM were pre-treated with the indicated concentrations of RL5P for 16 h, after which they were either stimulated with LPS (10 ng/mL) or infected with uropathogenic Escherichia coli (UPEC) strain EC958 (MOI 100) for 4 h. Supernatants were then assessed for secreted IL-6 by ELISA. Data were compiled from six independent experiments (or donors) and are presented as mean±SEM. Panel A presents IL-6 release (ng/mL), Panel B present IL-6 release normalized to LPS alone. Statistical significance was determined using repeated measure two-way ANOVA followed by Dunnett's multiple comparison test (A-B) (ns—not significant).
(§3) BMM were generated from indicated strains of mice, as previously described (Das Gupta et al., 2020, Cell Rep. 30:2712-2728.e2718). Bone marrow cells were cultured for 6 days in RPMI-1640 media (Thermo Fisher Scientific) supplemented with 10% FCS, 50 U/mL penicillin, 50 μg/mL streptomycin and 2 mM L-glutamine, in the presence of recombinant human colony-stimulating factor 1 (CSF-1), at either 1×10^4 U/mL (Chiron) or 150 ng/mL (The University of Queensland Protein Expression Facility). On day 6, BMM were harvested and replated at an appropriate density with fresh CSF-1, with cells being used in experiments on the following day. […]
(§4) BMM (5×10^5 cells/mL) or HMDM (5×10^5 cells/mL) were treated as indicated in individual figure legends. Supernatants were collected and assessed for secreted TNF. […] Supernatants were collected and analyzed for levels of IL-1β. […]

Experiment [2] has as its system uropathogenic Escherichia coli (UPEC) strain EC958. In words: Growth of UPEC strain EC958 with or without H2O2 oxidative stress (OD600, 12 h). Type of experiment: cell-based. As to the method:
FIG. 5 is a graphical representation showing effect of increasing RL5P concentrations on the growth of uropathogenic Escherichia coli (UPEC) strain EC958 under conditions of oxidative stress in the form of 0.8 mM H2O2. (A) EC958 was cultured±H2O2 (0.8 mM) in the presence of the indicated concentrations of RL5P for 12 h, during which growth was assessed (A600 at the indicated time points); (B) Area under the curve analysis for the 12 h period was calculated thereafter and is presented in FIG. 5B. Data are compiled from four independent experiments and are presented as mean±SEM. Each symbol represents a different experiment. Statistical significance for (B) was determined using repeated measure two-way ANOVA followed by non-parametric Kruskal Wallis test followed by Dunn's multiple comparison test (ns—not significant; * p<0.05; **** p<0.0001).
FIG. 6 is a graphical representation showing effect of increasing RL5P concentrations on the growth of UPEC under conditions of oxidative stress in the form of 1 mM H2O2. (A) EC958 was cultured±H2O2 (1 mM) in the presence of the indicated concentrations of RL5P for 12 h, during which growth was assessed (A600 at the indicated time points); (B) EC958 was cultured in the presence of the indicated concentrations of RL5P and the absence of H2O2 for 12 h, during which growth was assessed (A600 at the indicated time points). Data are compiled from four independent experiments and are presented as mean±SEM.
FIG. 7 is a graphical representation showing the effect of RL5P and 6-phosphogluconate (6PG) on the on the growth of UPEC under conditions of oxidative stress in the form of H202. (A) EC958 was cultured±H2O2 (0.8 mM) in the presence of the indicated concentration of RL5P or 6PG for 12 h, during which growth was assessed (A600 at the indicated time points); (B). Each symbol represents a different experiment. Statistical significance for (B) was determined using repeated measure two-way ANOVA followed by non-parametric Kruskal Wallis test followed by Dunn's multiple comparison test (ns—not significant; * p<0.05; **** p<0.0001).
All bacterial strains were cultured at 37° C. on solid or liquid Luria-Bertani (LB) medium. The non-pathogenic E. coli K12 strain MG1655 (Blattner et al., 1997. Science. 277:1453-1462) and EC958, a representative strain of the globally-disseminated multidrug-resistant ST131 clone isolated from the urine of a patient with a urinary tract infection (Totsika et al., 2011, PloS one. 6:e26578-e26578; Petty et al., 2014, Proc Natl Acad Sci USA. 111:5694-5699), were used in this study. […] Bacterial growth was assessed by monitoring OD600 using a POLARstar Omega (BMG Labtech) at 20-30 min intervals.

The subject of experiment [3] is Human monocyte-derived macrophages (HMDM). In words: Cytokine release (ELISA) from human monocyte-derived macrophages pre-treated with RL5P. Type of experiment: cell-based. As to the method:
as §1, §2, §3, §4

For experiment [4], the system named is bone marrow-derived macrophages (BMM). In words: Retroviral overexpression of Pgd (6PGD) in BMM, cytokines by ELISA. Type of experiment: cell-based, mouse. As to the method:
FIG. 2 is a graphical representation showing the effect of over expression of the 6PGD gene on the release of cytokines IL-1β, TNF and IL-6. The Pgd gene was retrovirally overexpressed in BMM. Nigericin-triggered IL-1β release from LPS-primed cells (A), as well as LPS-induced TNF (B) and IL-6 (C), in culture supernatants were assessed by ELISA. Data were compiled from five independent experiments and are presented as mean±S.E.M. Statistical significance was determined using two-way ANOVA followed by Sidak's multiple comparison test (ns—not significant; * p<0.05; ** p<0.01).
Retroviral overexpression of target genes in primary macrophages was performed as previously described (Das Gupta et al., 2020, Cell Rep. 30:2712-2728.e2718). Briefly, 2×10^6 PlatE cells were transfected with 40 μg of the respective retroviral expression vectors using Lipofectamine 2000 (Thermo Fisher Scientific). At 24 h post-transfection, media were replaced and cells were incubated at 32° C. for 48 h for optimal virus production. Viral supernatants were filtered through a […] Millex-HV PVDF syringe filter (Merck) and supplemented with 1M HEPES, 10 μg/mL polybrene and CSF-1. Bone marrow progenitors treated with CSF-1 for 2 days were spin-infected (1000 g, 2 h, 35° C.) with viral supernatants in 6-well non-tissue culture plates. The cells were immediately supplemented with complete RPMI media, then incubated at 37° C. for 48 h. At 48 h post-transduction, cells were supplemented with complete RPMI media. On day 6 of macrophage differentiation, adherent cells were collected and plated for subsequent experiments.
BMM (5×10^5 cells/mL) or HMDM (5×10^5 cells/mL) were treated as indicated in individual figure legends. Supernatants were collected and assessed for secreted TNF. To assess secreted IL-1β by ELISA, cells were further treated with Nigericin for 1 h (2 h for HMDMs). Supernatants were collected and analyzed for levels of IL-1β. For experiments comparing macrophages derived from mice of different genotypes, MTT assays were performed in parallel to control for any differences in plating densities.

In the case of `O=C(CO)[C@H](O)[C@H](O)COP(=O)([O-])[O][Na+]` [RL5P, Disodium [(2R,3R)-2,3,5-trihydroxy-4-oxopentyl]phosphate], the “inducible TNF production (secreted TNF)” value in experiment [1] (BMM pre-treated with RL5P for 16 h, ELISA) is reported as “modest”; in experiment [3] (HMDM pre-treated with RL5P for 16 h, ELISA), “dramatically reduced secreted TNF levels”. For the same molecule, the “Nigericin-triggered IL-1β release from LPS-primed cells” value in experiment [1] (BMM pre-treated with RL5P for 16 h, LPS, ELISA) was “suppressed LPS-inducible IL-1β production”; in experiment [3] (HMDM pre-treated with RL5P for 16 h, LPS, ELISA) it was “suppressed LPS-inducible IL-1β production”. Also, the “Suppression of IL-1β production in cells responding to Escherichia coli” value in experiment [1] (BMM, E. coli instead of LPS) is “much less pronounced”; in experiment [3] (HMDM, E. coli instead of LPS, effect in HMDM reduced to a lesser extent than in BMM), “much less pronounced”. Further, the “inducible IL-6 production” value is reported as “did not affect inducible IL-6 production” in experiment [1] (BMM, RL5P 16 h, then LPS (10 ng/mL) or UPEC EC958 (MOI 100) 4 h, ELISA) and “did not affect inducible IL-6 production” in experiment [3] (HMDM, RL5P 16 h, then LPS (10 ng/mL) or UPEC EC958 (MOI 100) 4 h, ELISA). Besides, the “UPEC growth under oxidative stress” value is “significantly impaired E. coli growth in a dose-dependent manner” in experiment [2] (0.8 mM H2O2) and “also apparent” in experiment [2] (1 mM H2O2). The “UPEC growth in the absence of oxidative stress” value in experiment [2] (no H2O2) is on record as “did not affect UPEC growth”.

B1: 6PGD: 6-phosphogluconate dehydrogenase ectopically expressed; retroviral Pgd overexpression in BMM; in b299 delivered as mRNA in DMONs (protein)
chain: MAQADIALIGLAVMGQNLILNMNDHGFVVCAFNRTVSKVDDFLANEAKGTKVVGAQSLKDMVSKLKKPRRVILLVKAGQAVDDFIEKLVPLLDTGDIIIDGGNSEYRDTTRRCRDLKAKGILFVGSGVSGGEEGARYGPSLMPGGNKEAWPHIKAIFQAIAAKVGTGEPCCDWVGDEGAGHFVKMVHNGIEYGDMQLICEAYHLMKDVLGMRHEEMAQAFEEWNKTELDSFLIEITANILKYRDTDGKELLPKIRDSAGQKGTGKWTAISALEYGMPVTLIGEAVFARCLSSLKEERVQASQKLKGPKVVQLEGSKKSFLEDIRKALYASKIISYAQGFMLLRQAATEFGWTLNYGGIALMWRGGCIIRSVFLGKIKDAFERNPELQNLLLDDFFKSAVDNCQDSWRRVISTGVQAGIPMPCFTTALSFYDGYRHEMLPANLIQAQRDYFGAHTYELLTKPGEFIHTNWTGHGGSVSSSSYNA
notes: 6-phosphogluconate dehydrogenase ectopically expressed; in b299 delivered as mRNA in DMONs
Turning to B1, in experiment [4], the “LPS-induced IL-6” value is given as “unaffected” and the “LPS-induced TNF” value is reported as “significantly reduced LPS-induced TNF”. Further, in experiment [4] (Nigericin-triggered release from LPS-primed cells), the “inducible IL-1β response” value is recorded as “attenuated the inducible IL-1β response”.

These data come from patent publication US20260191937A1, “AGENTS, COMPOSITIONS AND METHODS FOR MODULATING IMMUNITY” (The University of Queensland, priority 2022, published 2026).
